Experimental data as given in publication PMC13347698 (Analytical Chemistry, 2026).

Key:
[1] = target: dimeric C145A 3CL^pro single mutant (Severe acute respiratory syndrome coronavirus 2, UniProt P0DTD1, C3408A); format: binding, SARS-CoV-2
[2] = target: monomeric E290A/R298A 3CL^pro double mutant (Severe acute respiratory syndrome coronavirus 2, UniProt P0DTD1, E3553A/R3561A); format: binding, SARS-CoV-2

CC(C)(C)c1ccc(N(C(=O)c2c[nH]cn2)[C@@H](C(=O)NC2CCCCC2)c2cccnc2)cc1 [X77]
binding heat detected [1]: No measurable heat was detected | binding detectable [2]: not
